*: point of attachment. AMC = Cc1cc(=O)oc2cc(N*)ccc12; Cbz = O=C(OCc1ccccc1)*
Experiments:
thrombin [1] = biological target: T1, thrombin (Homo sapiens, UniProt P00734); assay: Label-free nanoliter HTS reaction on MALDI target: thrombin release of fibrinopeptides A and B from fibrinogen, MALDI MS detection; format: biochemical; details: benzamidine in the nanoliter reaction, FIG. 26B
Experimental: The glycerol in the reaction was then removed, and MALDI matrix was deposited to result in a thin film suitable (FIG. 26A) for MS detection of FPA/FPB.
A 8×12 array of reactions were printed using an OmniGrid microarrayer containing varying concentrations of fibrinogen and a fibrinopeptide MS satandard. Certain reactions contained 1 mM benzamidine. The array was activated with thrombin and incubated under humidity (top row, A), the glycerol was removed (middle row, A), and then coated with MALDI matrix (bottom row, A). […] Conditions of the MALDI MS were: Voyager—DE PRO (sinapinic acid matrix), Glu1-Fibrinopeptide B (1 ug/ml) control, Reflector Mode, Positive Polarity, 1000-2000 Da Acquisition Range, 20000 V Accelerating voltage, 2033 laser. intensity (20.0 Hz; 100/spectrum), Extraction delay time: 150 nsec, Grid voltage: 75%, Guide wire voltage: 0.002%.

plasmin [2] = biological target: plasmin (Homo sapiens, UniProt P00747); assay: Microarray assay: deposition of pure plasmin onto fluorogenic substrate array; format: biochemical; details: pure plasmin (1 μM) deposited on the array
plasmin [3] = details: Morita, 1977; cited from earlier work
thrombin [4] = biological target: T1, thrombin; assay: Microarray assay: aerosol deposition of thrombin onto fluorogenic substrates in DMSO/glycerol; format: biochemical; details: after spray application of thrombin
Experimental: Well characterized for over 30 years, serine proteases of the coagulation pathway in plasma were selected as a system in which to monitor the delivery of complex enzyme fluids to the microassay. Fluorogenic substrates in DMSO/glycerol were assayed to a glass slide.
After spray application, thrombin caused a 65-fold increase in fluorescence activity after conversion of the boc-VPR-MCA substrate. […] Aerosol deposition of pure tPA (10 μM) to a sensing array caused significant cleavage of the tPA, thrombin and Xa substrates, resulting in fluorescence that was 18- to 20-fold above background.

plasmin (Homo sapiens, UniProt P00747), sequence (P00747 581-810 limits assumed, species assumed): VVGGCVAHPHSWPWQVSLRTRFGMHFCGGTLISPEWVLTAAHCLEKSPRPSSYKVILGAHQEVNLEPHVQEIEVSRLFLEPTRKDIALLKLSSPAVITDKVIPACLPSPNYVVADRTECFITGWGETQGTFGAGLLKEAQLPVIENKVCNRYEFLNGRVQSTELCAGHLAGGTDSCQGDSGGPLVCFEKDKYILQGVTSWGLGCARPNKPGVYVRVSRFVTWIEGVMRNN
plasmin (Homo sapiens, UniProt P00747), sequence (P00747 97-580 partner limits assumed, species assumed): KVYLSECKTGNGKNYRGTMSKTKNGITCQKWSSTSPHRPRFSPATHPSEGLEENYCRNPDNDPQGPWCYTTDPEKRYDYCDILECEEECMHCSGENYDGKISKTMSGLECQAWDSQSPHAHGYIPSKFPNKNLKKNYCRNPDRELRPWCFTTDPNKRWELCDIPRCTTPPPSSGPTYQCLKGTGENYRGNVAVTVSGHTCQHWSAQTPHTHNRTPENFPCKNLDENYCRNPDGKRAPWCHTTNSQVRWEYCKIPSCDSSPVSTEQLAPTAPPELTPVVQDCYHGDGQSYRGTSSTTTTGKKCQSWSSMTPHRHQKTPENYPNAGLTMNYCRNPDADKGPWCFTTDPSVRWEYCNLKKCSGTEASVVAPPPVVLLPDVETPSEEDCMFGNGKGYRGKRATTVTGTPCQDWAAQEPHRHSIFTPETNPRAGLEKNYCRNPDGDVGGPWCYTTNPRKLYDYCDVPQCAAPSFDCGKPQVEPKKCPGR

Molecule: N=C(N)c1ccccc1 [Benzamidine]
- inhibition of thrombin-mediated release of fibrinopeptides A and B (FPA/FPB) (thrombin [1]): completely inhibited the reaction

Molecule: boc-VLK-MCA
- signal above background (plasmin [2]): 25 fold

Molecule: Cbz-Phe-Arg-{AMC}
- reported plasmin activity on substrate (plasmin [3]): activity

Molecule: boc-VPR-MCA
- increase in fluorescence activity after conversion of the substrate (thrombin [4]): 65 fold
- reported plasmin activity on substrate (plasmin [3]): activity

Reference: patent US7297501B2, “Method and devices for running reactions on a target plate for MALDI mass spectrometry” (University of Pennsylvania, priority 2001, dated 2007)
